Key:
[1] = tested on: monoamines in cerebral cortex, striatum, hippocampus; assay: Monoamine concentration in brain regions after single dose or 11 days of RA; format: in vivo, mice
Protocol: In order to examine the effect of a single dose of RA, we conducted intragastric administration of RA at 0.1 m mol/kgBW to wild type mice and measured the monoamine concentration in three brain regions (cerebral cortex, striatum, and hippocampus) after 0, 60, and 240 min. […] Therefore, we extended the RA administration period to 11 days.

Aβ [2] = tested on: Aβ; set-up: method as in PMID 19893028; conditions: Tg2576 mice, cited from earlier work
DA in brain sections = assay: DA imaging by IMS (MALDI-TOFMS); format: in vivo, C57BL/6 J mice; conditions: 0.5% RA diet for 10 days
Protocol: Because it has been reported that isoflurane anesthesia increases the release of DA in rat striatum, we adopted decapitation after cervical dislocation without anesthesia to euthanize the mice after 10 days of breeding (C and RA group). The left hemisphere of the brain of each mouse was collected, then sagittal sections 8 μm thick were prepared using a cryostat (CM-3050 S; LEICA, Germany) at −25 °C and mounted on a glass slide coated with indium tin oxide. Sections were sprayed with DPP and incubated at 40 °C for 30 min, and then sprayed with 2,5-dihydroxybenzoic acid to improve ionization efficiency. The surface of the sections was ionized by irradiation with laser light at 200 μm intervals using an Ultrafle Xtreme (matrix-assisted laser desorption/ionization time-of-flight mass spectrometer) (MALDI-TOFMS) (Bruker Daltonik GmbH, Bremen, Germany). The peak of DPP-derivatized DA (m/z: 368.2), which constitutes a complex of the target substance (DA) and DPP, was measured two-dimensionally. Only DA that could be derivatized was measured.

[3] = Side effects in the animal study; format: in vivo, mice; conditions: RA-fed animals
[4] = tested on: brain capillary endothelial cell monolayers; assay: BBB permeability in an in vitro BBB model (BBB Kit); format: in vitro ADME; conditions: caffeine positive, Na-F negative control, n = 3
Protocol: We measured the BBB permeability by using the BBB Kit (PharmaCo-Cell, Nagasaki, Japan) according to the manufacturer’s instructions. CA was used as a positive control, and Na-F as a negative control. The concentration of the assay buffer on the brain parenchyma side was measured by HPLC–ECD as per the in vivo RA transferability test. Na-F was measured with Ex/Em = 485/538 nm using a FlexStarion 3-fluorescence-plate reader (Molecular Devices, CA, USA). The permeability coefficient (Pe: × 10^−6 cm/sec) was calculated as follows using the concentration of the test substance added to the luminal side ([C]Luminal), the concentration of test compound that passed through to the […] every 20 minutes ([C]Abluminal), and the amount on the brain parenchyma side (VAbluminal). Volume(µL)=([C]Abluminal×VAbluminal)/[C]Luminal The amount of permeation was plotted every 20 min and the value of the slope of the formula of the quantity transmitted for each time was used as the permeation index (PS). […] 1/PSendothelial=1/PStotal−1/PSmembrane Pe was calculated by dividing PSendothelial by the insert surface area (A). […]

[5] = In vivo RA transferability test (HPLC-ECD of plasma and brain); set-up: species or system C57BL/6 J mice; conditions: C57BL/6 J, mouse, plasma, oral, 0.5 % (fed), mice fed 0.5% RA for 7 weeks, mean ± S.E. (n = 5)
Protocol: The blood and whole brain were collected under isoflurane anesthesia after 7 weeks of breeding (C and RA group). The blood samples were centrifuged at 1,800 × g at 4 °C for 10 min to obtain EDTA plasma.
Phosphate-buffered saline (PBS) (1 mL/0.1 g of brain tissue) was added to the brain tissue sample and homogenized with a Polytron homogenizer. After that, the samples were centrifuged at 4,000 × g at 4 °C for 40 min to obtain the brain extract supernatant. The plasma and brain extract were processed as follows. In the β-glucuronidase-treated group, 50 μL of plasma or brain extract was suspended in 50 μL of 200 U β-glucuronidase and 0.1 M sodium acetate buffer (pH 5.0). Then the samples were incubated at 37 °C for 45 min. In the non-treated group, 50 μL of plasma or brain extract were suspended in 50 μL of 0.1 M sodium acetate buffer and incubated as above. After incubation, 200 μL of 0.83 M methyl acetate buffer was added to the samples of both groups, the protein was precipitated by vortex stirring for 1 minute, treated with sonication for 1 minute, and centrifuged at 8,500 × g at 4 °C for 5 min. The supernatants were recovered and passed through 0.45 μm filters, and the concentrations of RA and metabolites in the filtrates were measured using an Ultimate 3000 HPLC-ECD (Thermo Fisher scientific, Massachusetts, US). The conditions of chromatography were the same as the previous report.

Aβ [6] = tested on: Aβ; set-up: method as in PMID 14994335; conditions: screen of five polyphenols; cited from earlier work
[7] = tested on: mRNA of DA-metabolizing enzymes, Tieg2, Tgf-β1; assay: Relative mRNA measurement in cerebral cortex, SN and VTA by qRT-PCR; format: in vivo, C57BL/6 J mice
Excerpt: The mice were divided into two groups, C and RA, as mentioned above, and fed with the appropriate diet for 11 days. We collected SN and VTA from the brain according to methods previously described. In brief, we collected the whole brain, washed it with saline, and obtained 1 mm thick coronal sections using a brain slicer BS-Z 2000C (Muromachi Kikai Co., Ltd., Tokyo, Japan). Referring to the Allen Brain Atlas[55], we acquired the SN and VTA from the relevant sections.
Total RNA was extracted from SN, and VTA using TRIzol (Invitrogen) according to the manufacturer’s manual. After checking the quality of total RNA, we synthesized cDNA using PrimeScript^TM RT Master Mix (Perfect Real Time) (TaKaRa Bio, Shiga, Japan). The primer sequences and conditions for our qRT–PCR are given in Suppl. Table S1 and Supplemental Methods. Results are expressed as mean of fold change compared with control condition (SE as error bars, n = 5, 6). All samples were tested in triplicate and the data were normalized to GAPDH (cerebral cortex) or β-actin (SN and VTA).

[8] = cited from earlier work
brain monoamines = assay: Monoamine concentration in the whole brain of mice fed RA for 7 weeks (HPLC-ECD); format: in vivo, C57BL/6 J mice; conditions: 0.5% RA diet for 7 weeks vs control
Protocol: The whole brain was collected under isoflurane anesthesia after 7 weeks of breeding (C and RA group). Buffer (2.0 mM NaHSO3, 20 μM EDTA • 2Na, 0.10 M HClO4; 1 mL/0.1 g of brain tissue) was added to the brain sample, the mixture was then homogenized with a Polytron and centrifuged at 12,000 × g at 4 °C for 5 min to obtain a brain extract supernatant. The supernatants were recovered, passed through 0.45 μm filters, and the concentration of monoamines in the filtrates was measured using HPLC-ECD. The conditions of chromatography were given in Supplemental Methods.

[9] = 0.5% RA diet 11 days vs controls, P < 0.05
[10] = RA diet 11 days, normalized to β-actin

## O=C(/C=C/c1ccc(O)c(O)c1)O[C@H](Cc1ccc(O)c(O)c1)C(=O)O [RA, rosmarinic acid]
[1]; [9]
  DOPAC level in cerebral cortex: increased significantly
  L-DOPA level in cerebral cortex: increased significantly
  NE level in cerebral cortex: increased significantly
[1]; 0.5% RA diet 11 days vs controls, P = 0.068
  DA level in cerebral cortex: somewhat increased
[1]; RA diet 11 days, data not shown
  monoamine concentration in striatum and hippocampus: not significantly changed
[1]; single intragastric dose 0.1 m mol/kgBW, 0, 60, 240 min, data not shown
  monoamine concentration in cerebral cortex, striatum and hippocampus: no significant differences
Aβ [2]; RA diet for 10 months
  Aβ deposition in the brain (immunohistochemistry): significantly decreased
Aβ [2]
  Aβ aggregation inhibitory activity in the brain, among five polyphenols: highest
DA in brain sections
  DPP-derivatized DA signals in cerebral cortex and striatum: more strongly than in control group
[3]
  side effects including nausea and vomiting: not observed
[4]
  transendothelial permeability (Pe): lowest value
[5]; β-glucuronidase not reacted
  concentration at 7 weeks: 590 ± 220 nM
[5]; β-glucuronidase reacted
  concentration at 7 weeks: 750 ± 150 nM
Aβ [6]
  Aβ aggregation in vitro: significantly inhibited
[7]; RA diet 11 days
  Tgf-β1 gene expression in SN and VTA: significantly downregulated
[7]; RA diet 11 days vs controls
  Tieg2 gene expression in SN and VTA: significantly decreased
[7]; RA diet 11 days, P = 0.13
  Th mRNA level in cerebral cortex: somewhat increased
[7]; RA diet 11 days, normalized to GAPDH
  mRNA levels of DA-metabolizing enzymes in cerebral cortex: no significant difference
[7]; [10]
  Comt mRNA expression in SN: significantly downregulated
  Maob mRNA expression in SN: significantly downregulated
  Maob mRNA expression in VTA: significantly downregulated
[8]; orally ingested polyphenols
  intestinal permeability: ~1%
[8]; previous in vitro study
  intestinal permeability, of intake volume: < 1%
Brain monoamines
  DA concentration in whole brain: changed but not significantly
  DOPAC concentration in whole brain: significantly increased
  L-DOPA concentration in whole brain: significantly increased
  NE concentration in whole brain: changed but not significantly

Reference: publication PMC6581955, “Rosmarinic acid suppresses Alzheimer’s disease development by reducing amyloid β aggregation by increasing monoamine secretion” (Scientific Reports, 2019)
